Test results reported in publication PMC6934184, “Selective DNA-PKcs inhibition extends the therapeutic index of localized radiotherapy and chemotherapy” (The Journal of Clinical Investigation, 2019).

Biological target: T1, PI4KB (PI4K beta) (Homo sapiens, UniProt Q9UBF8)
T1 construct: purchased Thermo Fisher Scientific (Life Technologies) SelectScreen
Test: SelectScreen Adapta
Format: biochemical
Outline: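 SelectScreen broad panel; activity (Z'LYTE, Adapta) plus binding formats. ATP: Km app for CSF1R Z'LYTE; 10 for CAMK1 Adapta. Readout = % per kinase.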

T1 sequence (Q9UBF8 whole entry): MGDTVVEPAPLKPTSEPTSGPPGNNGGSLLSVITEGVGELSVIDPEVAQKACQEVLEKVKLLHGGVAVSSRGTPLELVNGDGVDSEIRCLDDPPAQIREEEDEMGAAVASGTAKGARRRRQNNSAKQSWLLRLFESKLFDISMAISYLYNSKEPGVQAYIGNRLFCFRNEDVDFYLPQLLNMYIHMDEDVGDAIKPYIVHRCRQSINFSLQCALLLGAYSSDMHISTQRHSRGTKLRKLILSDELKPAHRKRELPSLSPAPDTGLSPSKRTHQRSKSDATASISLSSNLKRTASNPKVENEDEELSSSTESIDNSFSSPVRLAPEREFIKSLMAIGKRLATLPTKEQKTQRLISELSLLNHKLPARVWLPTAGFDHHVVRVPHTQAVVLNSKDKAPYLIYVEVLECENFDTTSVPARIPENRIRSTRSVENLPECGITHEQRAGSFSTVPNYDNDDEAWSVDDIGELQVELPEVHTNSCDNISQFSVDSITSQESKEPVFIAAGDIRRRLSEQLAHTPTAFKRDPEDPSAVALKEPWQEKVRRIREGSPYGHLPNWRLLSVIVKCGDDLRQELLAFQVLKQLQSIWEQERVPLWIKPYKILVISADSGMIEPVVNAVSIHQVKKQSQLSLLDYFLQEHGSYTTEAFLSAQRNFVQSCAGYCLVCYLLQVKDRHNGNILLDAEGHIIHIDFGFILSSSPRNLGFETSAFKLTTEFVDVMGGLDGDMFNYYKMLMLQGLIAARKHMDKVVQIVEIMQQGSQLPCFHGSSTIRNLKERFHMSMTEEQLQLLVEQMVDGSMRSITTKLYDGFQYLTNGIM

In the case of `CN(C(=O)CN1CCOCC1)c1ccc2sc3c(-c4cccc5c(=O)cc(N6CC7CCC(C6)O7)oc45)cccc3c2c1` [NU5455], the inhibition at 1 µM is reported as -4.7%.
